Results taken from patent US20090247616A1, “USE OF BENZO-FUSED HETEROCYLE SULFAMIDE DERIVATIVES FOR THE TREATMENT OF ANXIETY” (priority 2008, published 2009).

Legend:
[1] = system: Male Rj:NMRI mice; assay: Elevated Plus Maze, Mouse (EPM); assay type: in vivo; conditions: 16 mg/kg p.o. (positive control)
Source text: Rodents avoid open spaces (in the case of the assay apparatus, the open arms of an elevated plus-maze). Compounds which have anti-anxiety activity increase exploratory activity of the rodents in the open arms of the elevated plus-maze. The EPM assay was run according to the procedure as described by Handley and Mithani (Naunyn. Schmied. Arch. Pharmacol., 327, 1-5, 1984).
Male Rj:NMRI mice, weighing 20-30 g (max. range per experiment=5 g) at the beginning of the experiments, were obtained from Elevage Janvier, 53940 Le Genest-Saint-Isle, France and used in the assay. The animals were delivered to the laboratory at least 5 days before the experiments during which time they were acclimatized to laboratory conditions. The mice were housed in groups of 10 in Macrolon cages (25×19×13 cm) on wood litter (Litalabo—SPPS, 95100 Argenteuil, France) with free access to food (Code 113—SAFE, 89290 Augy, France) and water until tested (or as indicated otherwise). The animal house was maintained under artificial lighting (12 hours) between 7:00 and 19:00 in a controlled ambient temperature of 21±3° C., and relative humidity between 30-80%.
The elevated plus-maze consisted of 4 arms of equal length and width (14×5 cm) arranged in the form of a plus sign (+). Two opposite arms were enclosed by 12 cm high walls (closed arms). The 2 other arms had no walls (open arms). The maze was raised 56 cm above the floor. A mouse was placed in the centre of the plus-maze and left to explore the maze for 5 minutes. The number of entries into the open and closed arms and the time spent in the open arms was recorded. Ten (10) mice were used for each study group. The test was performed blind.
Compound #8 was evaluated at 30 mg/kg, 60 mg/kg and 120 mg/kg doses, administered p.o. 60 minutes before the test, and compared with a vehicle control group. Compound #8 was homogenized and dispersed using a mortar and a pestle in 0.2% hydroxypropylmethylcellulose (HPMC) in distilled water, which served as the vehicle. As a positive control, Clobazam (16 mg/kg p.o.), was administered under the same experimental conditions. Clobazam as URBANYL® tablets (16 mg/kg p.o.) were dispersed in 0.2% hydroxypropylmethylcellulose (HPMC) in distilled water for administration. Each experiment therefore included 5 study groups of 10 mice each.
(§1) Data were analyzed by comparing groups treated with compound #8 with groups treated with vehicle control using unpaired Student's t tests.

[2] = system: mouse; assay: Four Plate Test, Mouse; assay type: in vivo; conditions: 32 mg/kg p.o. (positive control)
Source text: The Four Plate assay was run according to the procedure as described by Aron et al (Neuropharmacology, 10, 459-469, 1971). In this assay, the rodent experiences an electric shock upon crossing from one plate to another. Anxiolytics (such as benzodiazepines) increase the number of punished crossings.
Animals were placed individually in a white plastic enclosure containing a floor consisting of 4 metal plates connected to an electric shock generator (Apelex: Type 011346). The mouse was left to explore freely for 15 seconds. Then, every time the mouse crossed from one plate to another, it received a weak electric shock (2.5 mA, 1.5 s). The number of punished crossings were counted during a 1 minute test. Ten (10) mice were used for each study group. The test was performed blind.
Compound #8 was evaluated at 30 mg/kg, 60 mg/kg and 120 mg/kg doses, administered p.o. 60 minutes before the test, and compared with a vehicle control group. Compound #8 was homogenized and dispersed using a mortar and a pestle in 0.2% hydroxypropylmethylcellulose (HPMC) in distilled water, which served as the vehicle. As a positive control, Clobazam (32 mg/kg p.o.), was administered under the same experimental conditions. […]
as §1

[3] = same experimental conditions, 10 mice

Row | SMILES | Closed Arms Number of Entries, Mean ± S.E.M. [1, 3] | Open Arms Number of Entries, Mean ± S.E.M. [1, 3] | Open Arms Time Spent (sec), Mean ± S.E.M. [1, 3] [s] | Closed Arms Number of Entries, % change ([1]; change from vehicle control) | Open Arms Number of Entries, % change ([1]; change from vehicle control) | Open Arms Time Spent, % change ([1]; change from vehicle control) | Number of Punished Crossings, Mean ± S.E.M. [2, 3] | Number of Punished Crossings, % Change ([2]; change from vehicle control) | melting point [°C]
1 | CN1C(=O)CC(=O)N(c2ccccc2)c2cc(Cl)ccc21 [CLOBAZAM, Clobazam] | 11.9 ± 1.5 (*) | 11.7 ± 1.1 (***) | 120.1 ± 13.1 | +59% | +350% | +567% | 9.9 ± 1.2 (***) | +154% | 
2 | NS(=O)(=O)NCC1CCc2ccccc2O1 (stereo not drawn) |  |  |  |  |  |  |  |  | 100 to 101
